Measurements reported in article PMC8869097, “Benzothiazole Derivatives as Multifunctional Antioxidant Agents for Skin Damage: Structure–Activity Relationship of a Scaffold Bearing a Five-Membered Ring System” (Antioxidants, 2022).
Blank lines part the entries; values can stand above or below the molecule they belong to.

Columns and labels:
[1] = Filtering parameters (in vitro SPF, UVAPF, UVA/UVB, critical wavelength) of W/O formulations on PMMA plates; assay type: physicochemical
Description: The synthesized derivatives were incorporated at increasing concentrations (1%, 2% and 3%) in a topical W/O cosmetic standard formulation, to evaluate the filtering parameters, having the following ingredients composition.
INCI (International Nomenclature Cosmetic Ingredients): aqua, glycerin, Euxyl PE 9010, xanthan gum, ceteareth-12, ceteareth-20, sterearic acid, butylhydroxytoluene, myritol, PEG-7 glyceryl cocoate and 10% sodium solution.
Briefly, the protocol is to finger spread 32.5 mg of each formulation onto 25 cm2 PMMA plates. Each formulation was tested in triplicate by recording five measurements for each dish, after incubation in the dark for 15–30 min at room temperature. UV transmittance data were recorded in the range 290–400 nm using a UV-VIS spectrophotometer.
Blank plate, SPF, UVA-PF and Critical Wavelength were achieved through SPF Calculator Software (version 2.1), Shimadzu, Milan, Italy) as previously reported.
For the determination of the SPF in vitro of the samples in formulation it was decided to use an internal method, developed by us previously and based on the adaptation of the ISO 24443: 2012 [38]. The transmittance spectrum, processed with a specific software (SPF Calculator), made it possible to obtain the SPF, UVAPF, critical lambda and UVA/UVB ratio values of the formulations containing the selected active ingredients (Table 1).

[2] = Photostability of formulations after solar simulator irradiation; assay type: physicochemical; conditions: for photostability of the filter: formulation on PMMA plate, photostable if residual % >= 80
Description: The method adopted to determine the photostability has been previously reported. Each plate was prepared as mentioned above and subjected to a solar irradiation quantified as the minimum UVA dose equivalent to an effective erythema radiant exposure. Transmittance of the sunscreen layer was recorded in the range of 290–400 nm before and after exposure to sunlight.
Equations (3) and (4) made it possible to derive the residual percentage of SPF in vitro (% SPFeff.) and UVA-PF (% UVA-PFeff.), respectively, which, if greater than or equal to 80, can categorize a filter as photostable. %SPFeff. = in vitro SPFafter/in vitro SPFbefore × 100(3) %UVA − PFeff. = UVA − PFafter/UVA − PFbefore × 100.(4)
Photostability is a crucial feature to delineate the efficacy and safety profile of a solar formulation. According to the criteria developed by Garoli et al., photodegradation was measured by recording the pre- and post-irradiation transmittance of PMMA plates with finger-coated formulations, applying the dose of UVA necessary to cause erythema.
The residual efficacy after exposure (%) indicates the loss of sun protection after sun exposure. Equations (3) and (4) made it possible to derive the residual percentage of SPF in vitro (% SPFeff.) and UVA-PF (% UVA-PFeff.), respectively, which, if greater than or equal to 80, make a filter to be categorized as photostable, according to regulation. It can be deduced from the data obtained that compounds 8a and 10a were photostable (Figure 2). […] Compound 9a containing furan in position 2 was photo-unstable with SPF and PF-UVA below 80%, and this could be attributable to photo-instability of its conjugated species. The order of photostability that emerged for the benzothiazole derivatives is: thiophene derivatives> pyrrole derivatives> furan derivatives.

[3] = Ferric Reducing Antioxidant Power assay (FRAP); conditions: 593 nm
Description: The FRAP assay is a widely used method based on a colorimetric reaction linked to a redox and on the use of antioxidants as reducing agents.
The test evaluates the capacity of a sample to reduce ferric to ferrous ions in the presence of TPTZ (2,4,6-tripyridyl-s-triazine). The reaction mixture consists of 0.1 M acetate buffer pH 3.6, 10 mmol/L TPTZ in 40 mmol/HCl, and 20 mmol/L ferric chloride in the ratio 10/1/1 (v:v:v) as described by Benzie et al.. A total of 1.9 mL of reagent was added to 0.1 mL of suitably diluted sample or solvent. The absorbance values were measured using the UV-VIS spectrophotometer at 593 nm and expressed as µmol TE/g compound.

Microsporum gypseum = assay: Antidermatophyte activity, plaque growth inhibition; assay type: cell-based, Microsporum gypseum CBS 130,948; conditions: Nannizzia gypsea; 100 μg/mL, SDA; read-out: % Inhibition Growth M. gypseum
Description: (§1) The dermatophytes used in this study were Epidermophyton floccosum var. floccosum (Netherlands) CBS 358.93 strain, Trichophyton tonsurans (Netherlands) CBS 483.76 strain, Trichophyton mentagrophytes (Netherlands) CBS 160.66 strain, Microsporum canis (Iran) CBS 131,110 strain, and Microsporum gypseum (Iran) CBS 130,948 strain. All dermatophytes were maintained at 4 °C as agar slants on SDA. Candida albicans (ATCC 10231) was maintained at 4 °C on SDA plate.
(§2) The in vitro antifungal activity against the five selected dermatophytes was evaluated, as previously described, using the plaque growth inhibition method. All compounds were evaluated at the final concentration of 100 µg/mL. The percentages of growth inhibition according to Equation (5) were calculated as the average of three different experiments. I = [(C − T)/C] × 100%,(5) where I is the percentage value of growth inhibition, C is the measure of the diameter of the control circular mycelial inoculum (mm) and T is the extended diameter of the treated mycelial inoculum (mm).
(§3) All synthesized benzothiazole derivatives were evaluated to evaluate their in vitro antifungal activity against the five pathogenic dermatophytes that cause the most common dermatomycoses: Microsporum gypseum, Microsporum canis, Trichophyton mentagrophytes, Trichophyton tonsurans and Epidermophyton floccosum. All compounds were tested at a concentration of 100 µg/mL in DMSO, to evaluate the ability to inhibit the growth of dermatophyte cultures in Sabouraud Dextrose Agar (SDA). Briefly, room temperature incubation was performed and dermatophyte inhibition assessed by measuring the colony diameter at each disc for 7 days. The results are shown in Table 3 and were determined as the average of three different experiments.

Microsporum canis = assay: as above; assay type: cell-based, Microsporum canis CBS 131,110; conditions: 100 μg/mL, SDA, read-out: % Inhibition Growth M. canis
Description: as §1, §2, §3

UVA/UVB ([1]; 1% in W/O formulation): 0.69
λc ([1]; 1% in W/O formulation): 347 nm
UVA/UVB ([1]; 2% in W/O formulation): 0.62
λc ([1]; 2% in W/O formulation): 347 nm
UVA/UVB ([1]; 3% in W/O formulation): 0.45
λc ([1]; 3% in W/O formulation): 349 nm
photostability of the filter [2]: photostable
Structure (SMILES): c1csc(-c2nc3ccccc3s2)c1 [Compound 10a, 2-(Thiophen-2-Yl)benzothiazole]
SPF ([1]; 1% in W/O formulation): 4.86
UVAPF ([1]; 1% in W/O formulation): 1.60
SPF ([1]; 2% in W/O formulation): 5.14
UVAPF ([1]; 2% in W/O formulation): 1.60
SPF ([1]; 3% in W/O formulation): 10.73
UVAPF ([1]; 3% in W/O formulation): 2.02
FRAP [3]: 143.13 ± 3.84 μmolTE/g
inhibition at 100 µg/mL (Microsporum gypseum): 70.4 ± 0.77%
inhibition at 100 µg/mL (Microsporum canis): 66 ± 0.82%

UVA/UVB ([1]; 1% in W/O formulation): 0.70
λc ([1]; 1% in W/O formulation): 341 nm
UVA/UVB ([1]; 2% in W/O formulation): 0.73
λc ([1]; 2% in W/O formulation): 357 nm
UVA/UVB ([1]; 3% in W/O formulation): 0.75
λc ([1]; 3% in W/O formulation): 364 nm
Structure (SMILES): c1c[nH]c(-c2nc3ccccc3[nH]2)c1 [Lead 10, reference compound]
SPF ([1]; 1% in W/O formulation): 2.44
UVAPF ([1]; 1% in W/O formulation): 1.16
SPF ([1]; 2% in W/O formulation): 2.72
UVAPF ([1]; 2% in W/O formulation): 1.32
SPF ([1]; 3% in W/O formulation): 3.06
UVAPF ([1]; 3% in W/O formulation): 1.54
FRAP [3]: 1085.57 ± 0.88 μmolTE/g
inhibition at 100 µg/mL (Microsporum gypseum): 99.1 ± 1.33%
inhibition at 100 µg/mL (Microsporum canis): 96.8 ± 3.56%

Further lines, the molecule ahead of its results:

Structure (SMILES): c1c[nH]c(-c2nc3ccccc3s2)c1 [Compound 8a, 2-(1H-Pyrrol-2-Yl)benzothiazole]
SPF ([1]; 1% in W/O formulation): 4.19
UVA/UVB ([1]; 1% in W/O formulation): 1.17
UVAPF ([1]; 1% in W/O formulation): 2.17
λc ([1]; 1% in W/O formulation): 354 nm
SPF ([1]; 2% in W/O formulation): 7.16
UVA/UVB ([1]; 2% in W/O formulation): 0.92
UVAPF ([1]; 2% in W/O formulation): 2.46
λc ([1]; 2% in W/O formulation): 353 nm
SPF ([1]; 3% in W/O formulation): 13.05
UVA/UVB ([1]; 3% in W/O formulation): 0.66
UVAPF ([1]; 3% in W/O formulation): 2.88
λc ([1]; 3% in W/O formulation): 354 nm
UVA protection profile ([1]; UVA-PF at least 1/3 of SPF to be efficient): good UVA protection profile
photostability of the filter [2]: photostable
FRAP [3]: 329.85 ± 0.94 μmolTE/g
inhibition at 100 µg/mL (Microsporum gypseum): 50 ± 1.34%
inhibition at 100 µg/mL (Microsporum canis): 25 ± 1.61%

Structure (SMILES): c1coc(-c2nc3ccccc3s2)c1 [Compound 9a, 2-(Furan-2-Yl)benzothiazole]
SPF ([1]; 1% in W/O formulation): 6.42
UVA/UVB ([1]; 1% in W/O formulation): 0.34
UVAPF ([1]; 1% in W/O formulation): 1.26
λc ([1]; 1% in W/O formulation): 337 nm
SPF ([1]; 2% in W/O formulation): 14.18
UVA/UVB ([1]; 2% in W/O formulation): 0.18
UVAPF ([1]; 2% in W/O formulation): 1.60
λc ([1]; 2% in W/O formulation): 341 nm
SPF ([1]; 3% in W/O formulation): 20.23
UVA/UVB ([1]; 3% in W/O formulation): 0.13
UVAPF ([1]; 3% in W/O formulation): 1.50
λc ([1]; 3% in W/O formulation): 343 nm
residual percentage of SPF in vitro (% SPFeff.) ([2]; after irradiation): below 80%
residual percentage of UVA-PF (% UVA-PFeff.) ([2]; after irradiation): below 80%
photostability of the filter [2]: photo-unstable
FRAP [3]: 72.34 ± 3.42 μmolTE/g
inhibition at 100 µg/mL (Microsporum gypseum): 74.78 ± 0.59%
inhibition at 100 µg/mL (Microsporum canis): 64 ± 0.72%

Structure (SMILES): NS(=O)(=O)c1ccc2nc(-c3cccs3)sc2c1 [Compound 10c, 2-(Thiophen-2-Yl)benzothiazole-6-Sulfonamide]
FRAP [3]: 60.90 ± 1.87 μmolTE/g
inhibition at 100 µg/mL (Microsporum gypseum): 12.36 ± 0.05%
inhibition at 100 µg/mL (Microsporum canis): 14.3 ± 0.7%
